Data: US20250041189A1, “STEM CELL PROLIFERATION PROMOTER” (SHISEIDO COMPANY, LTD., priority 2021, published 2025)

Legend:
epidermal stem cells [1] = assay: Culturing of fresh human skin with agents, fluorescent immunostaining for Ki-67 and MCSP; assay type: cell-based; conditions: fresh human abdominal skin, final concentration 0.01%
Procedure: Fresh skin samples taken from the abdominal regions of participants (aged 20 to 30) with informed consent were purchased from KAC Co., Ltd. The samples were cultured in medium comprising an equal mixture of 10% FBS-DMEM (Thermo Fisher Scientific K.K., 11885084) and Humedia-KG2 (KURABO Industries Ltd., KK-2150S) with addition of 1-(2-hydroxyethyl)-2-imidazolidinone (“S173”, final concentration: 0.01%), which has an effect of inhibiting both MMP-9 and heparanase, […]”, final concentration: 0.01%), or a combination of 1-(2-hydroxyethyl)-2-imidazolidinone and […]”, final concentration: 0.01%). As a control, culturing was carried out in medium containing an equal amount of DMSO solvent lacking these agents. Medium was exchanged daily, and skin tissue slices were collected on the 2nd day (Day2). Following the AMeX method, fresh human skin was dehydrated and fixed using cold acetone and exchanged with acetone, methyl benzoate and xylene in that order, and then embedded in paraffin. Slices with thicknesses of 3 μm were prepared for tissue staining. Paraffin slices cut to 3 μm thicknesses were deparaffinized with xylene and hydrated using EtOH. Antibodies for Ki-67 (SP6) (Thermo Fisher Scientific K.K., RM-9106-S, rabbit […] monoclonal antibody) and antibodies for MCSP (melanoma-associated chondroitin sulphate proteoglycan) (Millipore, MAB2029, 9.2.27, mouse monoclonal antibody) were used for fluorescent immunostaining.

epidermal stem cells [2] = conditions: disclosed in NPL 1 (Iriyama et al., Scientific Reports 2020); cited from earlier work
[3] = Day2, compared to control without addition of agent (Day2 control)

In the case of `O=C1NCCN1CCO` [S173, 1-(2-hydroxyethyl)-2-imidazolidinone], the “number of Ki67-positive cells (cell proliferation marker)” value (epidermal stem cells [1]; [3]) is reported as “increased”, the “number of MCSP-positive cells (epidermal basal stem cell marker)” value (epidermal stem cells [1]; [3]) is reported as “increased” and the “number of Ki67+MCSP-positive cells” value (epidermal stem cells [1]; Day2, compared to the control) is reported as “increased”. The “number of stem cells (MCSP-positive) relative to Day0” value (epidermal stem cells [1]; after culturing for 2 days, compared to Day0 level) was “maintained at the level of Day0” and the “effect on epidermal stem cell counts” value (epidermal stem cells [2]) was “maintaining epidermal stem cell counts”.
